Values of other authors as cited in patent publication US20210205766A1, “METHODS AND RELATED APPARATUS FOR PROVIDING A PROCESSING SOLUTION FOR A FOOD PROCESSING APPLICATION” (Zee Company, Inc., priority 2016, published 2021).

Conditions: about half active (free), about half dissociated (bound) at pH of about 8.4

In the case of peroxyacetic acid [PAA], the pKA is listed as “about 8.4”.
